# What was measured:
# [1] = system: HeLa cells (mitotic spindles, β-tubulin/DAPI); assay: Immunofluorescence analysis of mitotic spindles and chromosomes; format: cell-based, human; conditions: 6 h, Compound 1 2.5 μM, CQ 15 or 25 μM
# Protocol: HeLa cells, treated with Compound 1 (a131) at 2.5 μM (FIG. 3b), chloroquine (CQ) at 15 μM (FIG. 3c) or 25 μM (FIG. 3d), or DMSO (FIG. 3a) for 6 h, were fixed in methanol and subjected to immunofluorescence analysis using antibodies against β-tubulin to visualize proper formation of mitotic spindles. The condensed mitotic chromosomes were visualized by counterstaining with DAPI. Only Compound 1 (a131)-treated HeLa cells arrested in mitosis with misaligned chromosomes and disorganized spindles (FIG. 3b). The bars in FIGS. 3a-d represent 5 μm in length.
# To confirm the inhibitory mitotic progression ability, HeLa cervical cancer cells as cultured above were treated with Compound 1 (2.5 μM, DMSO), CQ (15 or 25 μM, DMSO) or DMSO for 6 h. The treated cells were fixed in methanol and subjected to immunofluorescence analysis using antibodies against β-tubulin (Abcam, Cat#ab52623) to visualize proper formation of mitotic spindles. The condensed mitotic chromosomes were visualized by counterstaining with DAPI.
# [2] = system: non-transformed normal and oncogene-transformed human fibroblast BJ cell lines; assay: Chemoprotection from paclitaxel, Annexin V/PI FACS; format: cell-based; conditions: paclitaxel treatment alone, 50 nM
# Protocol: Normal and transformed BJ cells were treated with Compound 25 at 5 μM. 48 h after treatment, cells were further treated with (A) 50 nM paclitaxel (PTX) or (B) etoposide, at the concentrations shown, for additional 48 or 72 h, respectively. A: cells were collected, stained with Annexin V together with propidium iodide (PI) and subjected to FACS analysis. […] Student's t-test was performed to determine the statistical significance (***=P<0.0001, **=P<0.001, *=P<0.05, n.s.=no significance).
# The chemoprotective efficacies of the Compounds in Group 2 were further evaluated by measuring their ability to protect non-transformed normal cells, but not cancer and oncogene-transformed counterparts, from the most well-known as well as clinically-relevant chemotherapeutic agents, paclitaxel and etoposide. To determine this, isogenic non-transformed normal and oncogene-transformed human fibroblast BJ cell lines, cultured in DMEM supplemented with 10% FBS, were pre-treated with Compound 25 (a166—Group 2) at 5 μM. 48 h after treatment, cells were further treated with paclitaxel (PTX; FIG. 13A) or etoposide (FIG. 13B) for an additional 72 h. […] For etoposide, cell viability was determined using MTT assay and plotted in comparison with DMSO control vehicle with mean values±S.D. (n=4).
# [3] = system: HCT-15 human colon adenocarcinoma xenografts; assay: Tumour xenograft efficacy, tumour volume; format: in vivo, mice; conditions: HCT15 xenografts; intravenously 40 mg/kg, 3 times every 4 days; vs vehicle
# Protocol: A, B: is a graphical representation of tumour volumes estimated periodically as indicated. Mice bearing established tumour xenografts using HCT15 or MDA-MB-231 cells were treated orally (PO) or intraperitoneally (IP) twice a day with the indicated doses of Compound 1 or Compound 16 for 12 or 15 days. Paclitaxel (PTX) was given intravenously at dose of 40 mg/kg, 3 times every 4 days. Error bars show ±S.D. from mean tumour volumes obtained from 6 mice. Student's t-test was performed to determine the statistical significance (*=p<0.005). C: is a bar graph showing quantification of cells (n>100 per condition) with misaligned chromosomes and multipolar mitotic-spindles. […] tumour sections treated with Compound 16 (80 mg/kg) or control vehicle for 12 days were stained with anti-β-tubulin antibodies and DAPI. The percentage of cells with misaligned chromosomes and multipolar mitotic-spindles was quantified and plotted with mean values±S.D.
# Mice bearing established tumor xenografts using HCT15 or MDA-MB-231 cells were treated orally (PO) or intraperitoneally (IP) twice a day with the indicated doses of Compound 1 or its derivative Compound 16 (b5) for 12 or 15 days, respectively. For comparison, paclitaxel (PTX) was given intravenously to mice bearing established tumour xenografts using HCT15 at dose of 40 mg/kg, 3 times every 4 days.
SMILES,"mitotic arrest, chromosome alignment and mitotic spindles [1]",selectivity of cell death for oncogene-transformed BJ cells [2],anti-tumour effect (tumour volume) [3]
"CCN(CC)CCCC(C)Nc1ccnc2cc(Cl)ccc12 (stereo not drawn) [CQ, chloroquine, reference compound]",no such effects were seen,–,–
"CC(=O)O[C@H]1C(=O)[C@@]2(C)[C@H]([C@H](OC(=O)c3ccccc3)[C@]3(O)C[C@H](OC(=O)[C@H](O)[C@@H](NC(=O)c4ccccc4)c4ccccc4)C(C)=C1C3(C)C)[C@]1(OC(C)=O)CO[C@@H]1C[C@@H]2O [paclitaxel, reference compound]",–,showed a minimal selectivity for oncogene-transformed BJ cells,did not show significant anti-tumour effects
